Assays:
[1] = tested on: Zucker Diabetic Fatty (ZDF) rats; experiment: Zucker Diabetic Fatty (ZDF) rats, 4 weeks of treatment (GLU, HbA1c, insulin, TC, TG, BUN, organ index, TBA); assay type: in vivo, rat
NTCP = target: T1, NTCP (Homo sapiens, UniProt Q14973); experiment: In vitro bile acids assay (3H-TA uptake by NTCP-293 cells)
T1 sequence (Q14973 1-349): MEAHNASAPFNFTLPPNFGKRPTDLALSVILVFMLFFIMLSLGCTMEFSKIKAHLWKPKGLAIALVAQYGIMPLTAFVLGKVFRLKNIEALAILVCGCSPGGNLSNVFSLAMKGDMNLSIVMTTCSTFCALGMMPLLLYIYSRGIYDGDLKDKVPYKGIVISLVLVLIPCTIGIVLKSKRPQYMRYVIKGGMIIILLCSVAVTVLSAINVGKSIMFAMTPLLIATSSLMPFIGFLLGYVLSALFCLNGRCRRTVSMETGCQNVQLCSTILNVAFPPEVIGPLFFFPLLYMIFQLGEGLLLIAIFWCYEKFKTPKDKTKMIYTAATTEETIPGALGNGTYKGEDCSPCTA

[2] = tested on: hyperlipidemic golden hamsters; experiment: Hyperlipidemic golden hamster model, 4 weeks of treatment; assay type: in vivo; details: 50 mg/kg FENO po
[3] = 300 mg/kg Met, 2 weeks of dosing
[4] = 300 mg/kg Met, 4 weeks of dosing
[5] = ZDF rats, after 4 weeks of treatment, 300 mg/kg Met oral gavage, mean ± SEM

Compound: CN(C)C(=N)N=C(N)N [Met, Metformin]
- Fasting serum GLU (χ ± SEM) ([1]; 300 mg/kg Met oral gavage, 2 weeks of dosing): 7.98 ± 1.02 mmol/L
- Fasting serum GLU (χ ± SEM) ([1]; 300 mg/kg Met oral gavage, 4 weeks of dosing): 8.35 ± 0.58 mmol/L
- Fasting serum GLU (χ ± SEM) ([1]; 300 mg/kg Met oral gavage, week 0): 9.71 ± 0.96 mmol/L
- Serum BUN (χ ± SEM) [1, 3]: 6.58 ± 0.52 mM
- Serum TC (χ ± SEM) [1, 3]: 5.24 ± 0.35 mM
- HbA1c level (χ ± SEM) [1, 4]: 5.07 ± 0.23 %
- Serum BUN (χ ± SEM) [1, 4]: 7.09 ± 0.36 mM
- Serum TC (χ ± SEM) [1, 4]: 6.95 ± 0.54 mM
- HbA1c level (χ ± SEM) ([1]; 300 mg/kg Met, week 0): 6.25 ± 0.31%
- Serum BUN (χ ± SEM) ([1]; 300 mg/kg Met, week 0): 5.52 ± 0.21 mM
- Serum TC (χ ± SEM) ([1]; 300 mg/kg Met, week 0): 3.82 ± 0.11 mM
- Serum insulin (χ ± SEM) ([1]; 300 mg/kg Met, week 0): 6.74 ± 0.62 ng/mL
- Heart index (HI) vs model controls ([1]; MET 300 mg/kg, 4 weeks, FIG. 27A): had no effect on the HI values
- Total fat index (TFI) vs model controls ([1]; MET 300 mg/kg, 4 weeks, FIG. 27C): appeared to increase the TFI values
- Fasting serum GLU ([1]; MET positive control in the experiment with additional polypeptides, FIGS. 18A, 18B): significantly decreased fasting serum GLU
- Serum TBA level after weeks of dosing ([1]; ZDF rats, 300 mg/kg Met, week 0, mean ± SEM): 32.8 ± 12.3 µM
- Serum TBA level after weeks of dosing ([1]; ZDF rats, 300 mg/kg Met, week 2, mean ± SEM): 82.5 ± 27 µM
- Serum TBA level after weeks of dosing ([1]; ZDF rats, 300 mg/kg Met, week 4, mean ± SEM): 83 ± 15.8 µM
- Heart index [1, 5]: 3.63 ± 0.24 g/kg
- Kidney index [1, 5]: 7.26 ± 0.55 g/kg
- Total fat index [1, 5]: 94.64 ± 3.79 g/kg

Compound: C=C[C@H]1C[N@@]2CC[C@H]1C[C@@H]2[C@@H](O)c1ccnc2ccc(OC)cc12 [quinidine]
- Effect on TA absorption (NTCP; 0.1 μmol/L, FIG. 5E): enhanced TA absorption
- Effect on TA absorption (NTCP; 20 μmol/L, FIG. 5F): enhanced TA absorption

Compound: CC(C)OC(=O)C(C)(C)Oc1ccc(C(=O)c2ccc(Cl)cc2)cc1 [FENO, Fenofibrate]
- Serum TC (χ ± S) ([2]; 2 w of dosing): 6.63 ± 4.40 mmol/L
- Serum TG (χ ± S) ([2]; 2 w of dosing): 3.14 ± 0.4 mmol/L
- Serum TC (χ ± S) ([2]; 4 w of dosing): 7.42 ± 1.70 mmol/L
- Serum TG (χ ± S) ([2]; 4 w of dosing): 2.68 ± 0.30 mmol/L
- Serum HDL-C ([2]; 4 weeks post the treatment): 3.13 ± 0.30 mmol/L
- Serum LDL-C ([2]; 4 weeks post the treatment): 1.88 ± 0.40 mmol/L
- AI (atherosclerosis index) ([2]; 4 weeks, AI=(TC−HDL-C)/HDL-C): 1.36 ± 0.38
- Serum TC (χ ± S) ([2]; before dosing): 11.34 ± 0.50 mmol/L
- Serum TG (χ ± S) ([2]; before dosing): 6.16 ± 1.30 mmol/L
